Measured values published in US7105488B1, “G protein-coupled receptor antagonists” (priority 1998, dated 2006).
Where a SMILES comes first, the peptide text is derived from it.

Key:
Type in all cases: cell-based
CXCR4 receptor = CXCR4 receptor (Homo sapiens, UniProt P61073); test: Inhibition of SDF-1α-induced intracellular calcium release (Fura-2/AM) in HeLa and U87 cells; settings: for Concentration, required for inhibition of signal transduction: SDF-1α-induced intracellular calcium release, Table 2
Protocol: The effect of the peptides on CXCR4-mediated calcium fluxes in HeLa cells that naturally express the CXCR4 receptor and U87 cells stably expressing the CXCR4 receptor was tested as follows. Cells grown on Nunc cover glass chamber slides were incubated with 1 micromolar Fura-2/AM for 20 min in a CO2-incubator, rinsed with PBS and mounted on the stage of a Zeiss Axiovert inverted microscope. [Ca^2+]i measurements were performed using an Attofluor digital imaging system (Atto Instruments, Rockville, Md.). Fluorescence of Fura was excited at alternating wavelength of 340 and 380 nm. […] Calibrations of [Ca^2+]i signals were performed using Ca^2+ standards containing 1 micromolar Fura. CXCR4 antagonists were tested on HeLa cells and U87 cells. Stromal cell-derived factor-1α (SDF-1α) was used as a specific CXCR4 agonist. CCR5 antagonists, which were used in selectivity studies as described below, were tested on HEK (human kidney […]) cells stably expressing the CCR5 receptor and RANTES was used as an agonist. The antagonist activity of the peptides was evaluated by measuring the inhibition of agonist-evoked intracellular Ca^2+i release. These measurements were carried out in Fura-2/AM-treated cells, utilizing an Attofluor digital imaging system as described above. The agonist was SDF-1 α.

HIV-1RF = test: Anti-HIV-1 cytoprotection assay, CEM-SS cells infected with HIV-1RF; settings: HIV-1 strain RF, FIG. 2
CCR5 receptor = target: T1, CCR5 receptor (Homo sapiens, UniProt P51681); test: Inhibition of agonist (RANTES)-evoked intracellular calcium release through CCR5; settings: U87 cells as printed
T1 construct: expressed in transfected cells
Protocol: CCR5 antagonists, which were used in selectivity studies as described below, were tested on HEK (human kidney […]) cells stably expressing the CCR5 receptor and RANTES was used as an agonist. The antagonist activity of the peptides was evaluated by measuring the inhibition of agonist-evoked intracellular Ca^2+i release. These measurements were carried out in Fura-2/AM-treated cells, utilizing an Attofluor digital imaging system as described above. The agonist was SDF-1 α.

LAV strain of HIV-1 = test: Anti-HIV-1 assay, CEM-SS cells infected with LAV strain, p24 ELISA; settings: FIG. 1
Protocol: The ability of synthetic CXCR4-derived peptides of Table 1 to inhibit HIV-1 infection of CEM-SS cells was tested using an LAV strain of the virus that is known to utilize CXCR4 as a co-receptor. Anti-HIV-1 assay. Buckheit et al. (1993) Antiviral Research 21: 247. The CEM-SS cells were maintained in RPMI 1640 medium containing 10% fetal bovine serum. The cells were placed in each well of a 96-well microtiter plate to a density of 5×10^3 cells per well. The cells were infected with HIV-1 virus at a multiplicity of infection (MOI) previously determined to produce maximal level of viral production at 6 days post infection (MOI of 0.01).
Serial half-log dilutions of test compound were added to appropriate wells in triplicate to evaluate their ability to inhibit HIV-1 infection. AZT was used in parallel as a positive control. Following 6 days of incubation at 37° C., the presence and relative abundance of viral p24 protein was determined by ELISA in cell-free supernatants derived from each well of the microtiter plate. The p24 ELISA kit was purchased from the AIDS Vaccine Program, NCI, FCRDC (Frederick, Md.) and the assay was performed according to the manufacturer's instructions.

CCKAR = target: T2, CCKAR (Rattus norvegicus, UniProt P30551); test: Inhibition of CCK-8-induced intracellular calcium release in CHO cells stably transfected with rat CCKAR
T2 construct: expressed in transfected cells; host or cells: CHO cells
T2 sequence (P30551 1-444): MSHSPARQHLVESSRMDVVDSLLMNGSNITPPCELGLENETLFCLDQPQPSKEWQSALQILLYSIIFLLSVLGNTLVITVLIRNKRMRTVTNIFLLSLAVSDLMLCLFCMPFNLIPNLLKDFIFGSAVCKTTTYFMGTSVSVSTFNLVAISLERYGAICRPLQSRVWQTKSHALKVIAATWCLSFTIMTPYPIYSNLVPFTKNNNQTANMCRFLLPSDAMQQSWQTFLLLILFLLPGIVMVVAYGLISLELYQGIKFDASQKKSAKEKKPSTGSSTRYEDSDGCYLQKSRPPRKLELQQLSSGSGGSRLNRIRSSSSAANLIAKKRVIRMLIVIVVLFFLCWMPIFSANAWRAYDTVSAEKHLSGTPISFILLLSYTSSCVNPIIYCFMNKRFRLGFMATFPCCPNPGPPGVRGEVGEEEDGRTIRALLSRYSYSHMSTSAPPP
Protocol: The activity of peptides from the CCKAR transmembrane domain were tested in transfected CHO cells that stably express rat CCKAR (Tarasova et al. (1997), J. Biol. Chem. 272: 14817–14824). Sulfated cholecystokinin octapeptide was the CCKAR agonist. Determination of intracellular calcium release was performed as described in example 1 above.
None of CCKAR-derived peptides served as antagonists of chemokine receptors and none could inhibit HIV-1 infection. The activity of the antagonists in inhibiting signaling through the receptor was compared to the ability to prevent agonist binding (Table 4). Inhibition of signaling was assessed in CCK-8 evoked intracellular calcium release in FURA-2/AM treated CHO cells stably transfected with rat CCKAR (Tarasova, et al. (1997) J. Biol. Chem. 272:14817). Inhibition of ligand binding was measured with the use of a fluorescent agonist, rhodamine green CCK-8 (RG-CCK-8) and quantitative confocal laser scanning microscopy (Tarasova, et al. (1997) J. Biol. Chem. 272:14817). Peptides derived from the first, second, and sixth transmembrane domains inhibited CCK-induced signaling through the CCKAR receptor.

CXCR4 receptor, sequence (P61073 whole entry): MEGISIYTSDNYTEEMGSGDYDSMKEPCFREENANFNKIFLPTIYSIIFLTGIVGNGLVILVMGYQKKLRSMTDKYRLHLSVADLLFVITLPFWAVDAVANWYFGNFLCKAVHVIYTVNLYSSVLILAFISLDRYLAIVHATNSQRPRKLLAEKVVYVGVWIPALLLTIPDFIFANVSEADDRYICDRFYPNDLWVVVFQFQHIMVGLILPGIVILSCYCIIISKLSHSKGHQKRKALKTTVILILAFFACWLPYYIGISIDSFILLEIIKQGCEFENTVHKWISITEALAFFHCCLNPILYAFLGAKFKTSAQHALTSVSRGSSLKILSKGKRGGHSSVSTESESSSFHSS
T1 sequence (P51681 whole entry): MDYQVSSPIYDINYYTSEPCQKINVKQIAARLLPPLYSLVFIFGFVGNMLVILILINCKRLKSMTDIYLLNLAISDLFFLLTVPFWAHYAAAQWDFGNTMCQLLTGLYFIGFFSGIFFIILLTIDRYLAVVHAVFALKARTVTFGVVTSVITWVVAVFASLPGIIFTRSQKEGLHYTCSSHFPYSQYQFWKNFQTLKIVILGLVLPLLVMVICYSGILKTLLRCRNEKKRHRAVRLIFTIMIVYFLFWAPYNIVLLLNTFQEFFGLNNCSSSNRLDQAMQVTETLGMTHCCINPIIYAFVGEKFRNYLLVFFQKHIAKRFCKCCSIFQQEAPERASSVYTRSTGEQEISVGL

Q: How did the “Concentration, required for inhibition of signal transduction” value (CXCR4 receptor) turn out when `CC[C@H](C)[C@H](NC(=O)[C@H](Cc1ccccc1)NC(=O)[C@H](CC(=O)O)NC(=O)[C@@H]1CCCN1C(=O)[C@@H](NC(=O)[C@@H](NC(=O)[C@H](CC(C)C)NC(=O)[C@H](CC(C)C)NC(=O)[C@H](CC(C)C)NC(=O)[C@H](C)NC(=O)[C@@H]1CCCN1C(=O)[C@@H](NC(=O)[C@H](Cc1c[nH]c2ccccc12)NC(=O)[C@@H](NC(=O)CNC(=O)[C@@H](NC(=O)[C@H](Cc1ccc(O)cc1)NC(=O)[C@@H](N)C(C)C)C(C)C)C(C)C)[C@@H](C)CC)[C@@H](C)O)[C@@H](C)CC)C(=O)N[C@@H](Cc1ccccc1)C(=O)N[C@@H](C)C(=O)N[C@@H](CC(N)=O)C(=O)N[C@@H](CC(=O)O)C(=O)N[C@@H](CC(=O)O)C(=O)O` [Peptide F-4-2] (H-VYVGVWIPALLLTIPDFIFANDD-OH; N-terminus and C-terminus assumed) was run?
A: 5 µM

Q: What about the “Concentration that completely inhibited infection” value (HIV-1RF) of the same molecule?
A: 1 µM

Q: What does the source list for “LFFL LTVPFWAHYAAAQWDFGDD (LFFLLTVPFWAHYAAAQWDFGDD; CCR5-TM-2-2 GPCR CCR5)”?
A: Antagonist activity on CXCR4 signaling, in words (CXCR4 receptor): no effect; Concentration at which agonist induced signaling of the receptor was completely abolished (CCR5 receptor): 500 nM

Q: With `CC[C@H](C)[C@H](NC(=O)[C@@H](NC(=O)[C@H](Cc1ccccc1)NC(=O)[C@H](CC(C)C)NC(=O)[C@@H](N)CC(C)C)C(C)C)C(=O)N[C@H](C(=O)N[C@@H](CC(C)C)C(=O)N1CCC[C@H]1C(=O)N[C@@H](Cc1ccccc1)C(=O)N[C@@H](Cc1c[nH]c2ccccc12)C(=O)N[C@@H](C)C(=O)N[C@H](C(=O)N[C@@H](CC(=O)O)C(=O)N[C@@H](C)C(=O)N[C@H](C(=O)N[C@@H](C)C(=O)N[C@@H](CC(N)=O)C(=O)N[C@@H](Cc1c[nH]c2ccccc12)C(=O)N[C@@H](Cc1ccc(O)cc1)C(=O)N[C@@H](Cc1ccccc1)C(=O)NCC(=O)N[C@@H](CC(N)=O)C(=O)N[C@@H](CC(=O)O)C(=O)N[C@@H](CC(=O)O)C(=O)O)C(C)C)C(C)C)[C@@H](C)O` [Peptide F-2-2] (H-LLFVITLPFWAVDAVANWYFGNDD-OH; N-terminus and C-terminus assumed) as the molecule, how does the “Concentration at which signal transduction was completely blocked” value (CXCR4 receptor) read?
A: 0.2 µM

Q: What about the “Concentration, required for inhibition of signal transduction” value (CXCR4 receptor) of the same molecule?
A: 0.2 µM

Q: And the “Concentration, required for complete inhibition of [Ca^2+I] release” value (CXCR4 receptor; TM2-derived peptides, Table 3)?
A: 0.2 µM

Q: And the “Concentration that completely inhibited infection” value (LAV strain of HIV-1)?
A: 5 µM

Q: What does the source list for `CSCC[C@H](NC(=O)[C@H](CC(C)C)NC(=O)[C@H](CC(=O)O)NC(=O)[C@H](CO)NC(=O)[C@@H](NC(=O)[C@H](C)NC(=O)[C@H](CC(C)C)NC(=O)[C@H](CO)NC(=O)[C@H](CC(C)C)NC(=O)[C@H](CC(C)C)NC(=O)[C@@H](N)Cc1ccccc1)C(C)C)C(=O)N[C@@H](CC(C)C)C(=O)N[C@@H](CS)C(=O)N[C@@H](CC(C)C)C(=O)N[C@@H](Cc1ccccc1)C(=O)N[C@@H](CS)C(=O)N[C@@H](CCSC)C(=O)N1CCC[C@H]1C(=O)N[C@@H](Cc1ccccc1)C(=O)N[C@@H](CC(N)=O)C(=O)N[C@@H](CC(C)C)C(=O)N1CCC[C@H]1C(=O)O` [CCKAR-TM-2-1] (H-FLLSLAVSDLMLCLFCMPFNLP-OH)?
A: Concentration, required for inhibition of signaling (CCKAR; CCK-8-induced intracellular calcium release): 2 µM; Potency in inhibition of ligand signaling compared with binding (CCKAR; signaling versus RG-CCK-8 binding): comparable potencies
